The target of data set [1] is Brd4 bromodomain 1 (BRD4(1)) (Homo sapiens, UniProt O60885). Description: Inhibition of tetra-acetylated histone H4 binding to Brd4 bromodomain 1, measured by FRET (HTRF). To be noted: 2 h at room temperature. Set-up: made in house; host or cells: E. coli BL21(DE3). Put shortly:
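N-terminally His-tagged bromodomain (200 nM), expressed in E. coli and purified by Ni affinity and size exclusion, was incubated with biotinylated tetra-acetylated H4 peptide (25-50 nM), Eu-cryptate streptavidin and XL665 anti-His in HEPES pH 7.4 buffer with 0.2% DMSO. Reactions ran 2 h at room temperature. IC50 came from the 665/620 nm fluorescence decrease.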
For orientation: TR-FRET usually uses a lanthanide donor and a delayed reading to cut background.

Data set [2] relates to hIL-17 mRNA. Description: Inhibition of hIL-17 mRNA transcription in OKT3-stimulated peripheral blood mononuclear cells. Format: cell-based. The following applies: human PBMC, OKT3 stimulation 6 h, read-out: IL-17 Activity. On the procedure: Human peripheral blood mononuclear cells were plated (2.0×10^5 cells per well) in a 96-well plate in 45 μL OpTimizer T Cell expansion media (Life Technologies) containing 20 ng/ml IL-2 and penicillin/streptomycin. The cells were treated with increasing concentrations of the test compound or DMSO (0.1%), and incubated at 37° C., 5% CO2 for 1 h before addition of 10× stock OKT3 antibody at 10 ug/ml in media. Triplicate wells were used for each concentration. Cells were incubated at 37° C., 5% CO2 for 6 h before the cells were harvested. At time of harvest, cells were pelleted by centrifugation at 800 rpm for 5 min. Cells were harvested using the mRNA Catcher PLUS kit according to manufacturer's instructions. The eluted mRNA was then used in a one-step quantitative real-time PCR reaction, using components of the RNA UltraSense™ One-Step Kit (Life Technologies) together with Applied Biosystems TaqMan® primer-probes for hIL-17 and Cyclophilin. Real-time PCR plates were run on a ViiA™7 real time PCR machine (Applied Biosystems), data was analyzed, normalizing the Ct values for hIL-17 to an internal control, prior to determining the fold induction of each unknown sample, relative to the control.

Data set [3] has as its system hIL-6 mRNA. Description: Inhibition of hIL-6 mRNA transcription in LPS-stimulated U937 macrophages. Format: cell-based, Human. The following applies: Homo sapiens, U-937, PMA-differentiated U937 cells, 1 h pretreatment, LPS 3 h, read-out: IL-6 activity. Put shortly:
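PMA-differentiated U937 macrophages (60 ng/mL PMA, 3 days) pretreated 1 h with compound in 0.1% DMSO, then stimulated with 1 ug/mL E. coli LPS for 3 h at 37° C. IL-6 mRNA quantified by one-step TaqMan qRT-PCR, normalized to cyclophilin; fold expression relative to control, triplicate wells.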

Data set [4] concerns Human AML MV-4-11 cells. Description: Inhibition of cell proliferation in MV4-11 cells (CellTiter Aqueous One). Format: cell-based. The following applies: MV4-11, 72 h. Put shortly: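 MV4-11 cells, 5×10^4 per well in IMDM with 10% FBS, were exposed to increasing compound concentrations or 0.1% DMSO for 72 h at 37 °C in triplicate. Viability was read by MTS (CellTiter Aqueous One) absorbance at 490 nm after 3-4 h. IC50 was derived from background-corrected signal relative to DMSO.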

The test system of data set [5] is c-myc in Human AML MV4-11 cells. Description: Inhibition of cMYC expression (mRNA, real-time PCR) in MV4-11 cells. Format: cell-based. The following applies: 3 h treatment, cMYC mRNA by real-time PCR. Put shortly:
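MV4-11 cells in IMDM with 10% FBS were treated with increasing compound concentrations (DMSO 0.1%) for 3 h at 37 °C, in triplicate. Isolated mRNA was quantified by one-step TaqMan RT-qPCR, cMYC Ct normalized to cyclophilin, and fold expression given relative to DMSO control.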
A general note: Real-time PCR tracks product formation cycle by cycle.

SMILES strings stand for the structures. Some results are limits rather than exact numbers.

In general, melting point refers to the temperature, or range, at which the solid turns liquid.

As for `Cc1noc(C)c1-c1cc2c(c(-c3c(C)noc3C)c1)OCCN2` [Example Compound 13, 6,8-bis(3,5-dimethylisoxazol-4-yl)-3,4-dihydro-2H-benzo[b][1,4]oxazine], the IC50 in data set [1] is no more than 300 nM; in data set [2] it was 300 to 3000 nM; in data set [3], 300 to 3000 nM; in data set [4] it was 300 to 3000 nM; in data set [5], 300 to 3000 nM.
`Cc1noc(C)c1-c1cc(-c2ccccc2C(F)(F)F)c2nc[nH]c2c1` [Example Compound 19, 3,5-dimethyl-4-(4-(2-(trifluoromethyl)phenyl)-1H-benzo[d]imidazol-6-yl)isoxazole]: the IC50 in data set [1] was 300 to 3000 nM; in data set [2], no more than 300 nM; in data set [3] it was 300 to 3000 nM; in data set [4] it was 300 to 3000 nM; in data set [5] it was 300 to 3000 nM.
For the compound `Cc1ccncc1-c1cc(-c2c(C)noc2C)cc2[nH]cnc12` [Example Compound 20, 3,5-dimethyl-4-(4-(4-methylpyridin-3-yl)-1H-benzo[d]imidazol-6-yl)isoxazole], the IC50 is no more than 300 nM in data set [1]; 300 to 3000 nM in data set [2]; no more than 300 nM in data set [3]; 300 to 3000 nM in data set [4]; 300 to 3000 nM in data set [5].
Regarding `Cc1noc(C)c1-c1cc(-c2c(C)noc2C)c2[nH]ncc2c1` [Example Compound 21, 4,4′-(1H-indazole-5,7-diyl)bis(3,5-dimethylisoxazole)], the IC50 in data set [1] was no more than 300 nM; in data set [2], 300 to 3000 nM; in data set [3], 300 to 3000 nM; in data set [4], 300 to 3000 nM; in data set [5], 300 to 3000 nM.
For `Cc1noc(C)c1Nc1cc(-c2c(C)noc2C)cc2[nH]cnc12` [Example Compound 42, N-(6-(3,5-dimethyl-isoxazol-4-yl)-1H-benzo[d]imidazol-4-yl)-3,5-dimethyl-isoxazol-4-amine], the IC50 is no more than 300 nM in data set [1]; 300 to 3000 nM in data set [2]; no more than 300 nM in data set [3]; no more than 300 nM in data set [4]; no more than 300 nM in data set [5].
Turning to `Cc1nc2c(-c3cnccc3C(F)(F)F)cc(-c3c(C)noc3C)cc2[nH]1` [Example Compound 50, 3,5-dimethyl-4-(2-methyl-4-(4-(trifluoro-methyl)pyridin-3-yl)-1H-benzo[d]imidazol-6-yl)isoxazole], the IC50 in data set [1] was no more than 300 nM; in data set [2] it was 300 to 3000 nM; in data set [3], no more than 300 nM; in data set [4] it was no more than 300 nM; in data set [5], 300 to 3000 nM.
Consider `Cc1nc2c(-c3c(C(F)(F)F)nn(C)c3C)cc(-c3c(C)noc3C)cc2[nH]1` [Example Compound 66, 4-(4-(1,5-dimethyl-3-(trifluoro-methyl)-1H-pyrazol-4-yl)-2-methyl-1H-benzo[d]imidazol-6-yl)-3,5-dimethyl-isoxazole], for which the IC50 in data set [1] was no more than 300 nM; in data set [2], no more than 300 nM; in data set [3], no more than 300 nM; in data set [4], no more than 300 nM; in data set [5], 300 to 3000 nM.
For `Cc1nc2c(-c3ccc(N)nc3C)cc(-c3c(C)noc3C)cc2[nH]1` [Example Compound 68, 5-(6-(3,5-dimethyl-isoxazol-4-yl)-2-methyl-1H-benzo[d]imidazol-4-yl)-6-methyl-pyridin-2-amine], the IC50 in data set [1], in data set [2], in data set [3], in data set [4] and in data set [5] was no more than 300 nM in each case.
Regarding `Cc1noc(C)c1-c1cc(-c2cccc(C(N)=O)c2C)c2nc[nH]c2c1` [Example Compound 73, 3-(6-(3,5 dimethyl-isoxazol-4-yl)-1H-benzo[d]imidazol-4-yl)-2-methyl-benzamide], the IC50 in data set [1] is no more than 300 nM; in data set [2], 300 to 3000 nM; in data set [3] it was no more than 300 nM; in data set [4] it was no more than 300 nM; in data set [5], no more than 300 nM.
Consider `CCOc1nc2c(-c3cccnc3C)cc(-c3c(C)noc3C)cc2[nH]1` [Example Compound 81, 4-(2-ethoxy-4-(2-methylpyridin-3-yl)-1H-benzo[d]imidazol-6-yl)-3,5-dimethyl isoxazole], for which the IC50 in data set [1] is no more than 300 nM; in data set [2], no more than 300 nM; in data set [3], 300 to 3000 nM; in data set [4], no more than 300 nM; in data set [5], no more than 300 nM.
On to `Cc1nc2c(-c3cc(F)ccc3C)cc(-c3c(C)noc3C)cc2[nH]1` [Example Compound 92, 4-(4-(5-fluoro-2-methyl-phenyl)-2-methyl-1H-benzo[d]imidazol-6-yl)-3,5-dimethyl isoxazole], for which the IC50 is no more than 300 nM in data set [1]; 300 to 3000 nM in data set [2]; no more than 300 nM in data set [3]; 300 to 3000 nM in data set [4]; 300 to 3000 nM in data set [5].
Consider `Cc1nc2c(-c3ccc4sncc4c3)cc(-c3c(C)noc3C)cc2[nH]1` [Example Compound 137, 4-(4-(benzo[d]isothiazol-5-yl)-2-methyl-1H-benzo[d]imidazol-6-yl)-3,5-dimethyl isoxazole], for which the IC50 was no more than 300 nM in data set [1]; 300 to 3000 nM in data set [2]; 300 to 3000 nM in data set [3]; 300 to 3000 nM in data set [4]; 300 to 3000 nM in data set [5].
In the case of `Cc1noc(C)c1-c1cc(-c2c(C)noc2C)c2c(C)c[nH]c2c1` [Example Compound 140, 4,4′-(3-methyl-1H-indole-4,6-diyl)bis(3,5-dimethylisoxazole)], the IC50 in data set [1] is no more than 300 nM; in data set [2], 300 to 3000 nM; in data set [3] it was no more than 300 nM; in data set [4] it was no more than 300 nM; in data set [5], no more than 300 nM.
For `Cc1nc2c(Nc3c(C)nn(C)c3C)cc(-c3c(C)noc3C)cc2[nH]1` [Example Compound 146, 6-(3,5-dimethyl-isoxazol-4-yl)-2-methyl-N-(1,3,5-trimethyl-1H-pyrazol-4-yl)-1H-benzo[d] imidazol-4-amine], the IC50 in data set [1], in data set [2], in data set [3], in data set [4] and in data set [5] was no more than 300 nM throughout.
On to `Cc1nc2c(-c3c(C)noc3C)cc(-c3c(C)cnn3C)cc2[nH]1` [Example Compound 178, 4-(6-(1,4-dimethyl-1H-pyrazol-5-yl)-2-methyl-1H-benzo[d]imidazol-4-yl)-3,5-dimethylisoxazole], for which the IC50 was 300 to 3000 nM in data set [1]; no more than 300 nM in data set [2]; 300 to 3000 nM in data set [3]; 3000 to 30000 nM in data set [4]; 300 to 3000 nM in data set [5].
On to `Cc1noc(C)c1-c1cc(-c2c(C)noc2C)c2c(C)n[nH]c2c1` [Example Compound 179, 4,4′-(3-methyl-1H-indazole-4,6-diyl)bis(3,5-dimethylisoxazole)], for which the melting point lay in the range of 228 to 230 °C. The IC50 in data set [1] is no more than 300 nM. In data set [4], the IC50 was in the range of 300 to 3000 nM. Also, the IC50 in data set [5] was in the range of 300 to 3000 nM.
`Cc1ncccc1-c1cc(-c2c(C)noc2C)cc2[nH]c(N3CCN(C)CC3)nc12` [Example Compound 183, 3,5-dimethyl-4-(2-(4-methylpiperazin-1-yl)-4-(2-methylpyridin-3-yl)-1H-benzo[d]imidazol-6-yl)isoxazole] returned a melting point of 238 to 240 °C. In addition, the IC50 in data set [1] is no more than 300 nM. The compound further showed an IC50 in data set [4] of no more than 300 nM. In data set [5], this compound registered an IC50 of no more than 300 nM.
As for `Cc1noc(C)c1-c1cc(-c2c(C)nn(C)c2C)c2[nH]c([S+](C)[O-])nc2c1` (centres unmarked) [Example Compound 194, 3,5-dimethyl-4-(2-(methylsulfinyl)-4-(1,3,5-trimethyl-1H-pyrazol-4-yl)-1H-benzo[d]imidazol-6-yl)isoxazole], the melting point fell in the range of 242 to 244 °C. Further, the IC50 in data set [1] was no more than 300 nM. This compound also returned an IC50 in data set [4] of 300 to 3000 nM.

(Values after patent US9999616B2 (ZENITH EPIGENETICS LTD., priority 2013, dated 2018).)
